# Measured values published in the supplement of paper PMC13380429.
# How the values were obtained:
# Details in all cases: 72 h
# [1] = tested on: Caco-2; assay: cell viability relative to DMSO; higher = less toxic
# [2] = tested on: Calu-3; assay: as above
# [3] = tested on: HepG2; assay: as above
# [4] = tested on: U2OS; assay: as above
# [5] = tested on: Vero E6; assay: as above
# [6] = tested on: Caco-2; assay: relative viability EC50 (midpoint between 100% and the lowest measured viability); higher = less toxic
# [7] = tested on: Calu-3; assay: as above
# [8] = tested on: HepG2; assay: as above
# [9] = tested on: U2OS; assay: as above
# [10] = tested on: Vero E6; assay: as above
# [11] = tested on: Caco-2; assay: drug sensitivity score (DSS) for viability; higher = more toxic; extreme values may be limits of the assay
# [12] = tested on: Calu-3; assay: as above
# [13] = tested on: HepG2; assay: as above
# [14] = tested on: U2OS; assay: as above
# [15] = tested on: Vero E6; assay: as above
Structure (SMILES),cell viability ([1]; 1 nM),cell viability ([1]; 10 nM),cell viability ([1]; 100 nM),cell viability ([1]; 1000 nM),cell viability ([1]; 10000 nM),cell viability ([2]; 1 nM),cell viability ([2]; 10 nM),cell viability ([2]; 100 nM),cell viability ([2]; 1000 nM),cell viability ([2]; 10000 nM),cell viability ([3]; 1 nM),cell viability ([3]; 10 nM),cell viability ([3]; 100 nM),cell viability ([3]; 1000 nM),cell viability ([3]; 10000 nM),cell viability ([4]; 1 nM),cell viability ([4]; 10 nM),cell viability ([4]; 100 nM),cell viability ([4]; 1000 nM),cell viability ([4]; 10000 nM),cell viability ([5]; 1 nM),cell viability ([5]; 10 nM),cell viability ([5]; 100 nM),cell viability ([5]; 1000 nM),cell viability ([5]; 10000 nM),relative viability EC50 [6],relative viability EC50 [7],relative viability EC50 [8],relative viability EC50 [9],relative viability EC50 [10],drug sensitivity score [11],drug sensitivity score [12],drug sensitivity score [13],drug sensitivity score [14],drug sensitivity score [15]
CC(C)C[C@H](NC(=O)N1CCCCCC1)C(=O)N[C@H](Cc1cn(C)c2ccccc12)C(=O)N[C@H](Cc1ccccn1)C(=O)O,100%,82.5%,92.1%,99.9%,91.2%,109%,95.2%,97.9%,106%,112%,94.5%,111%,99%,101%,89.8%,99.1%,94.4%,96.4%,99%,97.9%,95%,97%,100%,98.9%,98.5%,> 10 µM,> 10 µM,> 10 µM,> 10 µM,> 10 µM,0,0,0,0,0
CCCCCCCCC(=O)N[C@H](CN1CCCC1)[C@H](O)c1ccc2c(c1)OCCO2,101%,94.9%,102%,111%,98.9%,109%,94.9%,92.2%,92%,94.8%,96.8%,105%,105%,106%,104%,101%,102%,105%,98.5%,102%,91.9%,97.2%,87.7%,90.4%,95.4%,> 10 µM,> 10 µM,> 10 µM,> 10 µM,> 10 µM,0,0,0,0,0
CCCCN1CCC(CCC(=O)c2cc(Cl)c(N)cc2OC)CC1,104%,100%,97.3%,92.7%,95.2%,101%,99.5%,101%,98.3%,109%,95.5%,98.2%,96.9%,82.8%,83.5%,104%,93.6%,95.8%,92.7%,94.1%,101%,102%,99.2%,101%,94.1%,> 10 µM,> 10 µM,> 10 µM,> 10 µM,> 10 µM,0,0,2.4,0,0
CCCCOCCOc1nc(-c2ccc(C(=O)O)c(F)c2)sc1C,94.1%,97.2%,94.6%,100%,82%,109%,104%,109%,89.8%,84.8%,97.5%,104%,105%,102%,102%,103%,102%,96.5%,89.6%,90.1%,100%,99.7%,97.5%,99.9%,90.8%,> 10 µM,> 10 µM,> 10 µM,> 10 µM,> 10 µM,0.4,1,0,0.1,0
CCOc1c2c(c(OCC)c3ccccc13)C(=O)N(c1ccc(CC(=O)NS(=O)(=O)c3ccccc3)cc1)C2,96.3%,94.8%,97.7%,90.3%,89.8%,94%,98.6%,102%,98.1%,98.2%,97.6%,87%,104%,93.1%,104%,99.4%,100%,96.4%,98.9%,97.2%,96%,95.1%,97.9%,89.1%,101%,> 10 µM,> 10 µM,> 10 µM,> 10 µM,> 10 µM,0,0,0,0,0
